Reference: patent EP1332756A2, “Compositions and methods for restoring a normal pattern of imprinting to cells” (priority 1996, dated 1998)
Like-named read-outs stand apart in the source and are kept apart here.

Assays:
H19 [1] = test: Allele-specific expression of H19 in tumor cells with LOI (RT-PCR, Alu I digestion); assay type: cell-based, human; details: JEG-3 cells
Experimental: (§1) Cell Culture and Treatment With 5-azaCdR. JEG-3 human choriocarcinoma and COLO-205 human colon adenocarcinoma cell lines were obtained from ATTC. Cells were cultured in RPMI 1640, 10% fetal calf serum, 5% CO2, with antibiotics. 10^4-10^5 cells in 6 cm dishes were treated with 0.3-10 µM 5-azaCdR for 24 hours. Cultures were washed in Hank's buffered saline solution and grown to confluence. Concentrations of 0.3-3.0 µM caused minimal cytotoxicity (0-30%).
(§2) Analysis of Gene Expression. For quantitative analysis of gene expression, total RNA was isolated as described (Chomczynski, P. and Sacchi, N. (1987) Anal. Biochem. 162:156-159), and 10 µg was electrophoresed in 1.2% agarose gels containing formaldehyde, and was transferred to Hybond-N + membranes (Amersham) and hybridized as described with H19 and IGF2 probes (Steenrnan et al. (1994) Nature Genet. 7:433-439). Hybridization with GAPDH was used as a control for RNA loading. […] Each sample was analyzed in duplicate in the presence and absence of reverse transcriptase to exclude DNA contamination. Gels were blotted and hybridized with a ^32P-labeled internal specific oligonucleotide probe (Rainier et al. (1993) Nature 362:747-749), and quantified with a PhosphorImager (Molecular Dynamics).

H19 [2] = test: Quantitative H19 expression in tumor cells with LOI (Northern blot, PhosphorImager); assay type: cell-based; details: Homo sapiens, 24 h, read-out: increase in H19 expression
Experimental: as §1
Analysis of Gene Expression. For quantitative analysis of gene expression, total RNA was isolated as described (Chomczynski, P. and Sacchi, N. (1987) Anal. Biochem. 162:156-159), and 10 µg was electrophoresed in 1.2% agarose gels containing formaldehyde, and was transferred to Hybond-N + membranes (Amersham) and hybridized as described with H19 and IGF2 probes (Steenrnan et al. (1994) Nature Genet. 7:433-439). Hybridization with GAPDH was used as a control for RNA loading. For analysis of allele-specific expression, 0.5 µg RNA was treated with DNase I (Boehringer Mannheim), heated to 95°C for 7 minutes, and RT-PCR was performed as described for both IGF2 and H19 (Rainier et al. (1993) Nature 362:747-749), although nested PCR using primers HP1 and HP2 (Hashimoto et al. (1995) Nat. Genet. 9:109-110) was performed for H19 analysis. PCR products were digested with either Apa I (for IGF2 analysis) or Alu I (for H19 analysis) as described (Tadokoro et al. (1991) Nucleic Acids Res. 19:6967), and electrophoresed on 4% Nusieve-agarose (3:1) gels. Each sample was analyzed in duplicate in the presence and absence of reverse transcriptase to exclude DNA contamination. Gels were blotted and hybridized with a ^32P-labeled internal specific oligonucleotide probe (Rainier et al. (1993) Nature 362:747-749), and quantified with a PhosphorImager (Molecular Dynamics).

[3] = Cytotoxicity of 24 hour 5-azaCdR treatment in cell culture; assay type: cell-based; details: human, jeg-3 and colo-205 cells, Concentrations of 0.3-3.0 µM
Experimental: as §1

H19 promoter CpG island = test: Southern analysis of methylation of the H19 promoter CpG island (Pst I and Sma I); assay type: cell-based, human
Experimental: (§3) Analysis of DNA Methylation. For quantitative analysis of DNA methylation, genomic DNA was prepared as described (Rainier et al. (1993) Nature 362:747-749), and Southern analysis of methylation of the H19 promoter CpG island was performed as described (Reik et al. (1994) Hum. Mol. Genet. 4:2379-2385). Filters were hybridized with the 1.8 kb Pst I fragment of H19, which detects imprint-specific methylation (Steenman et al. (1994) Nature Genet. 7:433-439). For analysis of allele-specific methylation, 1 µg DNA was digested with BamH I or with BamH I plus Hpa
In order to determine whether treatment with 5-azaCdR altered methylation of this imprint-specific region, cells were digested with Pst I and Sma I, as described (Reik et al. (1994) Hum. Mol. Genet. 3:1297-1301). Normal cells show approximately 50% methylation, since the paternal allele is methylated and the maternal allele is unmethylated (Steenman et al. (1994) Nature Genet. 7:433-439; Moulton et al. (1994) Nature Genet. 7:440-447; Reik et al. (1994) Hum. Mol. Genet. 3:1297-1301). Cells with LOI show increased methylation, reflecting abnormal methylation of the maternal allele (Steenman et al. (1994) Nature Genet. 7:433-439; Moulton et al. (1994) Nature Genet. 7:440-447; Reik et al. (1994) Hum. Mol. Genet. 3:1297-1301). […]

IGF2 [4] = test: IGF2 methylation after 5-azaCdR treatment; assay type: cell-based, human; details: data not shown
Experimental: as §3

cancer cells = test: Hollow fiber assay of in vivo cytotoxic effects; details: threshold for referral for xenograft testing
Description: The compounds were additionally tested for their in vivo cytotoxic effects on cancer cells, using a hollow fiber assay as described in Hollingshead et al. (1995) Life Sci. 57:131-141, herein incorporated by reference. […] Thus, several new potential effective chemotherapeutics were identified for tumors and/or doses not taught in the literature.

IGF2 [5] = details: mouse cells with maternal disomy for chromosome 7 (Eversole-Cire et al.); cited from earlier work
H19 [6] = test: Allele-specific methylation of H19 (Hpa II digestion, PCR, Alu I); assay type: cell-based, human; details: Hpa II digestion before PCR (Fig. 2B)
Experimental: as §3
After digestion, enzymes were inactivated by heating to 100° for 10 min. 50 ng digested DNA was added to the PCR reaction mix in Buffer F (Invitrogen), containing primers HP1 (5'-TACAACC-ACTGCACTACCTG-3') and H3 (5'-[…]-3') (Hashimoto et al. (1995) Nat. Genet. 9:109-110). One initial cycle (94°C, 4 min.) was followed by 28 cycles of 94°C, 1 min., 60°C, 1 min., 72° C, 1 min. PCR products (227 bp) were digested with Alu I, electrophoresed on 3% Nusieve/1% agarose gels, transferred to Hybond-N+ membranes (Arnersham), and hybridized with an internal oligonucleotide probe HP2 (5'-[…]-3'), and then quantified with a PhosphorImager (Molecular Dynamics). […]

IGF2 [7] = test: Allele-specific expression of IGF2 in tumor cells with LOI (RT-PCR, Apa I digestion); assay type: cell-based, human
Experimental: as §1, §2

IGF2 [8] = details: normal human brain cells (Hu et al.); cited from earlier work
tumor cells with LOI = test: In vitro effect of NCI lead compounds on LOI (allele ratio), saline as negative control; assay type: cell-based; details: for effective concentration / Allele ratio 1.0=complete LOI: in vitro; for Allele ratio 1.0=complete LOI: at the effective concentration, saline 1.0
Experimental: Based on the results showing that 5-aza-2'-deoxycytidine can restore normal imprinting to tumor cells with LOI, an analysis was performed using the drug discovery program described in Weinstein et al. (1997) Science 275:343-349, herein incorporated by reference. […] The highest correlations were as follows: 127716, 619003, 626883, 624646, 145118, 1850512, 626884, 626886, 622810, 176889, 622616, 620358, 619948, 622461, 624645, 15309, 638737, 294734, 112152, 153174 204816, 79037, 628082, 620319 (NCI reference numbers). These are considered lead compounds to determine whether they will restore normal imprinting or could be chemically modified to do so.
As a first test of this approach, the in vitro effect of 12 of these compounds were analyzed with saline as a negative control.

[9] = tested on: Cells having LOI, (Group A); test: NCI database search for compounds effective against cell lines with LOI (Group A) but not those without LOI (Group B); details: lead compounds still to be tested

Compound | total effectiveness score > 20 or an in vivo cell kill effect seen directly (cancer cells) | effective concentration (tumor cells with LOI) | Allele ratio 1.0=complete LOI (tumor cells with LOI) | other results
Nc1ncn([C@H]2C[C@H](O)[C@@H](CO)O2)c(=O)n1 [5-azaCdR, 5-aza-2'-deoxycytidine] | scored above the threshold for referral for xenograft testing | – | – | allele-specific expression of H19 (H19 [1]): monoallelic expression of the allele containing the Alu I polymorphic site; fold induction at 1 µM (H19 [2]; COLO-205 cells, 1.0 µM (data not shown)): 20; fold induction at 0.3 µM (H19 [2]; JEG-3 cells, 0.3 µM): 30; fold induction at 1 µM (H19 [2]; JEG-3 cells, 1.0 µM): 50; cytotoxicity at 24 h [3]: 0 to 30%; changes in DNA methylation of the H19 CpG island (H19 promoter CpG island; COLO-205 (data not shown)): reproducible; methylation of the H19 CpG island (H19 promoter CpG island; after treatment with 0.3 or 1.0 µM (Fig. 2A), normal cells approximately 50%): approximately 50%; IGF2 methylation (IGF2 [4]): not affected; expression of the maternal IGF2 gene (IGF2 [5]): epigenetic activation of the normally silent maternal IGF2 gene; allele specificity of altered H19 methylation (H19 [6]): one allele was preferentially affected; allelic expression of IGF2 (IGF2 [7]; COLO-205 colorectal carcinoma cells (data not shown)): a switch from biallelic to predominately monoallelic expression of IGF2; allelic expression of IGF2 (IGF2 [7]; JEG-3 cells, single 24 hr treatment with increasing doses (0.3, 0.6, 1.0 µM)): unequal expression of the two IGF2 alleles, with preferential expression of the allele lacking the Apa I polymorphic site; allelic expression of IGF2 (IGF2 [8]): switched IGF2 from a pattern of preferential expression of one allele to equal biallelic expression
CC1=CC(=O)C(C)=CC1=O [compound 15309, phlorone] | scored above the threshold for referral for xenograft testing | 10^-3M | 1.3 | –
C/C=C1/C(=O)O[C@]23C=C[C@@H]4C(C(=O)OC)=CO[C@H](O[C@@H]12)[C@@H]43 [compound 112152, plumericine] | scored above the threshold for referral for xenograft testing | 10^-3M | 1.2 | –
Nc1ccccc1 [compound 176889, benzenamine] | – | – | 3.7 | alteration in imprinting and/or cytotoxic effects (tumor cells with LOI; additional drugs tested): at least some alteration in imprinting and/or cytotoxic effects
C#CC[C@@]12CC(=O)C[C@@H]1CCC1(C2)OCCO1.C#CC[C@]12CC(=O)CC[C@H]1CC(=O)C2 [compound 619948] | – | 10^-4M | 1.8 | –
O=C1ON(Cc2ccccc2)C(c2ccccc2)N1c1ccccc1 (stereo not drawn) [compound 624645] | – | 10^-4M | 1.8 | –
COc1nc(NC2OC(CO)C(O)C(O)C2O)c(N)c(=O)[nH]1 (stereo not drawn) [compound 624646] | scored above the threshold for referral for xenograft testing | 10^-4M | 2.2 | –
CC(=O)O[C@@H]1[C@@H](C)/C=C/C(C)(C)[C@H](OC(C)=O)C[C@@H](OC(C)=O)/C(C)=C/[C@H]2[C@@H](OC(=O)c3ccccc3)[C@@H](C)C[C@]12OC(C)=O [compound 666860, euphornin D] | – | – | – | Predicted concentration [9]: 10^-4M
CC(C)/C(Cl)=N\OC(=O)NNc1ccccc1 [compound 682841] | – | – | – | Predicted concentration [9]: 10^-4M
Blue Platinum uracil [compound 180512] | – | 10^-2M | 45.0 | alteration in imprinting and/or cytotoxic effects (tumor cells with LOI): at least some alteration in imprinting and/or cytotoxic effects
Methyl-13-hydroxy-15-oxokaurenoate [compound 620358] | scored above the threshold for referral for xenograft testing | 10^-4M | 2.6 | alteration in imprinting and/or cytotoxic effects (tumor cells with LOI; additional drugs tested): at least some alteration in imprinting and/or cytotoxic effects
aspiculamycin HCL [200692-A] | – | – | – | Predicted concentration [9]: 10^-2M
cis-CCNU [compound 153174] | – | 10^-4M | 1.6 | –
gndimacrin [252940-S] | – | – | – | Predicted concentration [9]: 10^-4M
lankacyclin [compound 145118] | – | 10^-4M | 1.8 | alteration in imprinting and/or cytotoxic effects (tumor cells with LOI; additional drugs tested): at least some alteration in imprinting and/or cytotoxic effects
